Marks after values point to notes of the source that are not given here.
How the values were obtained:
[1] = tested on: NGF; test: NGF content in rat tissues after forced oral administration of xanthohumol (enzyme immunoassay); type: in vivo, rat (SD); conditions: excised on fifth day, average ± standard error, n=4
Procedure: (§1) (2) Male SD rats were purchased from Japan SLC, Inc., and used for an experiment from 7-week old after preliminary rearing. Xanthohumol described in Example 1 was suspended in distilled water, and the rats were subjected to forced oral administration of the suspension at a ratio of 3 and 10 mg of xanthohumol respectively per 1 kg of body weight. In addition, the suspension was intraperitoneally administered at a ratio of 1, 3 or 10 mg of xanthohumol. A control group was administered with distilled water in the same manner as above. In either group, four rats were administered once a day for consecutive days. In the case of the forced oral administration, the submandibular gland and the brain were excised on the fifth day from the beginning of administration. In the case of the intraperitoneal administration, ischiadic nerve and gastrocneminal muscle were excised at 4 hours after the end of administration on the third day. The excised tissues were homogenized and centrifuged, and the NGF contents in the supematant were determined by enzyme immunoassay method (manufactured by Roche).
(§2) The numbers in the tables represent an average value ± standard error for the four cases. In addition, an asterisk * symbol means that the group has a significant difference at a significance level of 5% or less as compared to the control group according to Student-t test, and a triple asterisk *** symbol means that the group similarly has a significant difference at a significance level of 0.1% or less.

[2] = type: in vivo; conditions: mouse, 1 g/kg in a single dose
Procedure: No toxicity is found even when the above-mentioned effective ingredient usable in the present invention is administered in an amount effective for the exhibition of its action.

[3] = Water maze test in rats with ibotenic acid-induced learning and memory disorder; type: in vivo, rat (Wistar); conditions: forced oral 10 mg/kg once a day, average ± standard error, n=9
Procedure: Male Wistar rats were purchased from Japan SLC, Inc., and used for an experiment from 7-week old after preliminary rearing. Ibotenic acid was administered intracerebrally to cause a learning and memory disorder. Nine rats were used for each group, and administration was begun one week after the administration of ibotenic acid. Xanthohumol of Example 1 was suspended in distilled water, and the rats were subjected to forced oral administration with the suspension at a ratio of 10 mg of xanthohumol per 1 kg of body weight. A control group was administered with distilled water in the same manner as above. The rats were administered once a day for consecutive days. A water maze test was carried out on and after the seventh day from the beginning of the administration to evaluate ability of recognizing spaces and directions.
The water maze test method was carried out as follows. Water of about 22° C. was charged in a large-scaled water vessel. A platform was set at a height of 2 cm below the water level, and rats were made to enter into water. The rats in water swim around so as to escape from water and take refuge in the platform. The time period from entering into water to taking refuge in the platform was recorded. After taking the refuge, the rats were made to observe surrounding environments on the platform. […]

[4] = tested on: NGF; test: NGF content in rat tissues after intraperitoneal administration of xanthohumol (enzyme immunoassay); type: in vivo, rat (SD); conditions: excised 4 hours after administration on third day, average ± standard error
Procedure: as §1, §2

[5] = forced oral 10 mg/kg once a day
[6] = intraperitoneal 1 mg/kg once a day
[7] = intraperitoneal 3 mg/kg once a day
[8] = intraperitoneal 10 mg/kg once a day

With `COc1cc(O)c(CC=C(C)C)c(O)c1C(=O)/C=C/c1ccc(O)cc1` [Xanthohumol, xanthohumol] the “NGF Content in Brain of Rat” value ([1]; forced oral 3 mg/kg once a day) was 508.2 ± 95.1 pg/g tissue, the “NGF Content in Submandibular Gland of Rat” value ([1]; forced oral 3 mg/kg once a day) was 8.88 ± 0.98*** ng/g tissue and the “NGF Content in Brain of Rat” value [1, 5] was 524.9 ± 200.7 pg/g tissue. The “NGF Content in Submandibular Gland of Rat” value [1, 5] was 13.39 ± 0.65*** ng/g tissue, the cases of deaths [2] was “no cases of deaths are found” and the “Time Period from entering water to taking refuge in the platform, First Trial” value ([3]; on and after seventh day) was 140.7 ± 14.7 s. For the same molecule, the “Time Period from entering water to taking refuge in the platform, Second Trial” value ([3]; second trial on next day) was 71.3 ± 10.8 s, the “NGF Content in Gastrocneminal Muscle of Rat” value [4, 6] was 48.0 ± 3.4 pg/g tissue and the “NGF Content in Ischiadic Nerve of Rat” value [4, 6] was 386.4 ± 30.1* pg/g tissue. The “NGF Content in Gastrocneminal Muscle of Rat” value [4, 7] was 53.9 ± 4.0 pg/g tissue, the “NGF Content in Ischiadic Nerve of Rat” value [4, 7] was 351.6 ± 26.8 pg/g tissue and the “NGF Content in Gastrocneminal Muscle of Rat” value [4, 8] was 56.8 ± 3.3 pg/g tissue. The “NGF Content in Ischiadic Nerve of Rat” value [4, 8] was 445.7 ± 59.1 pg/g tissue.

Source: patent publication US20040219238A1, “Remedies” (priority 2001, published 2004)
